Reference: publication PMC9609273 (Pharmaceuticals, 2022)
Read-outs that look alike come from different tables or passages of the source.

Key:
[1] = tested on: inhA promoter mutant INH-resistant Mtb clinical isolate; assay type: cell-based, Mycobacterium tuberculosis
[2] = tested on: katG S315T mutant INH-resistant Mtb clinical isolate; assay type: cell-based, Mycobacterium tuberculosis
[3] = target: enoyl acyl carrier protein reductase (InhA) (Mycobacterium tuberculosis, UniProt P9WGR1); assay type: biochemical
Sequence of enoyl acyl carrier protein reductase (InhA) (P9WGR1 whole entry, looked up): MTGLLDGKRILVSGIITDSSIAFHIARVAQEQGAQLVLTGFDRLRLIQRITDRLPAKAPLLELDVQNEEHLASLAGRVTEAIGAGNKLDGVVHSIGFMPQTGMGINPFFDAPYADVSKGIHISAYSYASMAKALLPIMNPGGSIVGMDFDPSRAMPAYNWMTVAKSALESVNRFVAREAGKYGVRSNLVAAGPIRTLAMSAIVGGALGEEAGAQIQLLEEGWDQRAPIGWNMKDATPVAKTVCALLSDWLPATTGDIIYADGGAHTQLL

Row | Compound | MIC inhA + [1] [µM] | MIC katG + [2] [µM] | % Inhibition of InhA ([3]; 50 µM) [%] | % Inhibition of InhA ([3]; 50 µM compound) [%]
1 | 3-((2-Isonicotinoylhydrazono)methyl)phenyl quinoline-8-sulfonate [SIH13] | 3.12 | 12.5 | 22 | 
2 | 3-((2-Isonicotinoylhydrazono)methyl)phenyl 2,5-dichlorobenzenesulfonate [SIH8] | 3.12 | 12.5 |  | 
3 | NNC(=O)c1ccncc1 [Isoniazid, isonicotinic acid hydrazide, reference compound] | 1.56 | 6.25 |  | 
4 | 3-((2-Isonicotinoylhydrazono)methyl)phenyl 3-nitrobenzenesulfonate [SIH10] | 3.12 | 12.5 |  | 17
5 | 3-((2-Isonicotinoylhydrazono)methyl)phenyl 4-bromobenzenesulfonate [SIH5] |  | 25 |  | 33
6 | 3-((2-Isonicotinoylhydrazono)methyl)phenyl 4-iodobenzenesulfonate [SIH7] | 6.25 | >100 |  | 41
7 | 3-((2-Isonicotinoylhydrazono)methyl)phenyl 4-methylbenzenesulfonate [SIH1] | 1.56 | 50 |  | 12
8 | 3-((2-Isonicotinoylhydrazono)methyl)phenyl 4-acetamidobenzenesulfonate [SIH11] | 3.12 | 12.5 |  | 10
9 | 3-((2-Isonicotinoylhydrazono)methyl)phenyl 2,4,6-trimethylbenzenesulfonate [SIH3] | 6.25 | 50 |  | 
10 | 3-((2-Isonicotinoylhydrazono)methyl)phenyl [1,1′-biphenyl]-4-sulfonate [SIH12] | 3.12 | 12.5 |  | 31
11 | 3-((2-Isonicotinoylhydrazono)methyl)phenyl 4-methoxybenzenesulfonate [SIH4] | 1.56 | 6.25 |  | 5
12 | 3-((2-Isonicotinoylhydrazono)methyl)phenyl 4-nitrobenzenesulfonate [SIH9] | 3.12 | 25 |  | 8
13 | 3-((2-Isonicotinoylhydrazono)methyl)phenyl 4-chlorobenzenesulfonate [SIH6] |  | >100 |  | 23
14 | 3-((2-Isonicotinoylhydrazono)methyl)phenyl 4-(tert-butyl)benzenesulfonate [SIH2] | 1.56 | 25 |  | 25
